Source: patent US20240239738A1, “(S)-3-AMINO-4-(DIFLUOROMETHYLENE)CYCLOHEXENE AND CYCLOHEXANE CARBOXYLIC ACID AND USES THEREOF AS SELECTIVE INACTIVATORS OF HUMAN ORNITHINE AMINOTRANSFERASE (hOAT)” (Northwestern University, priority 2021, published 2024)
Read-outs that look alike come from different tables or passages of the source. Each block holds one compound with its values, some of them ahead of it.

Legend:
hOAT [1] = target: T1, hOAT (Homo sapiens, UniProt P04181); assay: Time-dependent dialysis (reactivation) of inhibited hOAT; type: biochemical; conditions: hOAT partially or fully inhibited (0.6-2.0 equivalents of 14); up to 91 h of dialysis
T1 construct: made in house
T1 sequence (P04181 with tags, fused parts or gaps): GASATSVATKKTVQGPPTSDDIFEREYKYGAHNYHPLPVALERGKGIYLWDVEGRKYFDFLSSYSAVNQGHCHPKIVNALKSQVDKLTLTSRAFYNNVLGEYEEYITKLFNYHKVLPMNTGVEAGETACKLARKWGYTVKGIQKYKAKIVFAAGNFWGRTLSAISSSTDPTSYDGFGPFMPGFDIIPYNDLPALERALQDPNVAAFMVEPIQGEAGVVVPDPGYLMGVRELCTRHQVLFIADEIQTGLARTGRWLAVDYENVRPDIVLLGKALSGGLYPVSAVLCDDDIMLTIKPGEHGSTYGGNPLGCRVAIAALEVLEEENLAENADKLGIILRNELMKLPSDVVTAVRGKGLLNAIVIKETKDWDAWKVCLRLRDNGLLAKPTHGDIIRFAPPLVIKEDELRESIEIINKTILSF
Protocol: Previously, five-membered ring analogs 5 and 9 were identified as partially irreversible inhibitors of GABA-AT, with the formation of the tight-binding adducts.^29-30 Thus, time-dependent reactivation experiments of hOAT for cyclohexene analog 14 were carried out to determine if similar reversible components were also involved during the inactivation. After hOAT activity was partially or fully abolished by 0.6-2.0 equivalents of 14, aliquots at different time intervals were collected and assayed for the return of enzyme activity.
The dialysis experiment was conducted using previous protocols.^6, 8-9

in vivo PK profiles = conditions: for Cmax: read-out: C0/Cmax; for Kp at 0.25 h: read-out: B/P ratio @0.25 h
hOAT [2] = target: T1, hOAT; conditions: cited from earlier work
GABA-AT = target: T2, GABA-AT (Sus scrofa, UniProt P80147); assay: Coupled enzyme assay, time-dependent inactivation of GABA-AT; type: biochemical, pig
T2 construct: GABA-AT was isolated from pig brains and purified according to a literature procedure; from tissue; host or cells: pig brain
T2 sequence (P80147 29-500): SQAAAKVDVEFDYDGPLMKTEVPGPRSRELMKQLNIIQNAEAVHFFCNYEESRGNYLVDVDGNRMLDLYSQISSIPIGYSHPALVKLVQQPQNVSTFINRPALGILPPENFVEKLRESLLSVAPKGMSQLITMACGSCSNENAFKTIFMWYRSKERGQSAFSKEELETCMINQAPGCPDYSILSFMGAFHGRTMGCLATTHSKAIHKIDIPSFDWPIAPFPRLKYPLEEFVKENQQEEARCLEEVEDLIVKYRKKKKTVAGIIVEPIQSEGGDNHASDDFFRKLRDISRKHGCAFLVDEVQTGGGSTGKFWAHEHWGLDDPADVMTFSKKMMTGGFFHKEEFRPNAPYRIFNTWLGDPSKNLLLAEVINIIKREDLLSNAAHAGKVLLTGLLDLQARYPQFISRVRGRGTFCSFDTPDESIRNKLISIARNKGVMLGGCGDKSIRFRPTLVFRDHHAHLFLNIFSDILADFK
Protocol: (§1) hOAT and PYCR1 were expressed, grown, and purified according to literature procedures.^3-4 GABA-AT was isolated from pig brains and purified according to a literature procedure.^5 Coupled enzyme assays for GABA-AT, hOAT, Ala-AT, and Asp-AT were carried out according to previous procedures.^6-7

hOAT [3] = target: T1, hOAT; assay: Coupled enzyme assay, time-dependent inactivation of hOAT; type: biochemical; conditions: for Ki / kinact / kinact/KI: hOAT
Protocol: as §1

[4] = tested on: aspartate aminotransferase (Asp-AT); assay: Coupled enzyme assay, inhibition of Asp-AT; type: biochemical; conditions: at high concentrations, up to 20 mM
Protocol: as §1

hOAT [5] = target: T1, hOAT; assay: Partition ratio by titrating hOAT with inactivator; type: biochemical; conditions: turnover number minus one
Text: Usually, the partition ratio is used to determine the ratio of degradation and inactivation, calculated by titrating the enzyme with varying equivalents of inactivator. Ideally, a linear relationship (between enzyme activity remaining and equivalents of compounds) can be extrapolated to yield the exact equivalents (the intercept with the x-axis, turnover number) required to inactivate the enzyme completely. Since this obtained number includes the one molecule of inactivator required to inactivate one enzyme monomer, the partition ratio is the turnover number minus one. Therefore, the partition ratios of 5 and 14 were determined by titrating hOAT with varying equivalents of inactivators (FIG. 21). From this, we determined the partition ratio of 5 to be 4.9 and the partition ratio of 14 to be 0.6. The enlarged ring not only enhances the potency and selectivity against hOAT but also improves the efficiency of the inactivation.
The partition ratio was calculated using previous protocols.^6, 8-9

hOAT [6] = target: T1, hOAT; assay: Fluoride ion release on inactivation of hOAT; type: biochemical; conditions: for F^− Release: enzyme 1.34 μM monomer; for Fluoride ions released per active site: excess of inactivator
Text: Different equivalents of fluoride ions can be released in PLP and PMP turnover pathways. If PMP is formed in the turnover mechanism, it cannot be converted back to PLP in the absence of α-KG, which results in at most two equivalents of fluoride ion released (pathway a); more equivalents of fluoride ion would be released in the presence of α-KG if PMP is formed after the fluoride ion release step (pathway a1). If PLP is regenerated during the turnover mechanism, at least two equivalents of fluoride ions will be released in the absence of α-KG (pathway b), which should be close to the equivalents in the presence of α-KG. Based on the partition ratio and the confirmed inactivation mechanism for 14, the theoretical equivalents of fluoride ions, which are released per enzyme active site in different turnover pathways, can be calculated in the presence/absence of α-KG (Table 3). The concentration of released fluoride ions can be monitored by a fluoride ion-selective electrode. When OAT was inactivated with an excess of 14, 2.95 equivalents of fluoride ions were released in the presence of α-KG and 2.66 equivalents of fluoride ions were released in the absence of α-KG (Table 3).
The fluoride ion release assay was conducted using previous protocols.^2 The final concentration of hOAT in the sample was determined to be 61.7±4.1 ug/mL (monomer, 1.34±0.12 μM) via BSA assay and calculation of dilution. A calibration curve of voltage (V, mV) was generated from varying concentrations of NaF (F, μM) to get the equation: F^−=10^((V−181.4)/−54.21). For accurate detection of fluoride ion concentration, 2.0 μM of fluoride ion was added to each control and sample. The number of fluoride ions released per active site was calculated by the ratio of the fluoride ion release concentration and hOAT concentration.

[7] = tested on: alanine aminotransferase (Ala-AT); assay: Coupled enzyme assay, inhibition of Ala-AT; type: biochemical; conditions: at high concentrations, up to 20 mM
Protocol: as §1

[8] = values marked b from the slope of kobs vs [I], read-out: kinact/KI (converted)

Structure (SMILES): N[C@H]1C[C@@H](C(=O)O)CC1=C(F)F [Compound 5, reference compound]
- return of enzyme activity on dialysis (hOAT [1]): fully irreversible inhibitor

Structure (SMILES): N[C@H]1C=C(C(=O)O)CC1=C(F)F [Compound 9, reference compound]
- AUCinf (in vivo PK profiles; IV, 3 mg/kg): 653.80 ng·h/mL
- AUClast (in vivo PK profiles; IV, 3 mg/kg): 634.12 ng·h/mL
- C0/Cmax (in vivo PK profiles; IV, 3 mg/kg): 2376.08 ng/mL
- CL (in vivo PK profiles; IV, 3 mg/kg): 76.48 mL/min/kg
- T1/2 (in vivo PK profiles; IV, 3 mg/kg): 30.6 min
- VSS (in vivo PK profiles; IV, 3 mg/kg): 1.75 L/kg
- % F (in vivo PK profiles; PO, 10 mg/kg): 42%
- AUCinf (in vivo PK profiles; PO, 10 mg/kg): 1006.60 ng·h/mL
- AUClast (in vivo PK profiles; PO, 10 mg/kg): 881.20 ng·h/mL
- C0/Cmax (in vivo PK profiles; PO, 10 mg/kg): 1575.74 ng/mL
- Tmax (in vivo PK profiles; PO, 10 mg/kg): 15 min
- kinact/KI (hOAT [2]; from ref 29): 127 M⁻¹ s⁻¹
- Ki (hOAT [2]; from ref 40): 65 ± 10 µM
- kinact/KI (hOAT [2]; from ref 40): 14.5 M⁻¹ s⁻¹

Structure (SMILES): N[C@H]1C[C@@H](C(=O)O)CCC1=C(F)F [Compound 12, (1S,3S)-3-amino-4-(difluoromethylene)cyclohexane-1-carboxylic acid]
- Ki (GABA-AT): 1310 ± 400 µM
- kinact (GABA-AT): 0.000417 s⁻¹
- kinact/KI (GABA-AT; [8]): 0.317 M⁻¹ s⁻¹
- Ki (hOAT [3]): 1270 ± 200 µM
- kinact (hOAT [3]): 0.00193 s⁻¹
- kinact/KI (hOAT [3]): 1.52 M⁻¹ s⁻¹

Structure (SMILES): N[C@H]1C[C@H](C(=O)O)CCC1=C(F)F [Compound 13, (1R,3S)-3-Amino-4-(difluoromethylene)cyclohexane-1-carboxylic acid]
- Ki (GABA-AT): > 13100 µM
- kinact (GABA-AT): > 0.00317 s⁻¹
- kinact/KI (GABA-AT; [8]): 0.25 M⁻¹ s⁻¹
- Ki (hOAT [3]): 1480 ± 210 µM
- kinact (hOAT [3]): 0.0015 s⁻¹
- kinact/KI (hOAT [3]): 1.07 M⁻¹ s⁻¹

Further lines, results first:

- inhibitory activities against Asp-AT [4]: little or no inhibitory activities
- AUC(0-inf) (in vivo PK profiles; in vivo, iv, 10 mg/kg): 2490 ng·h/mL
- AUC(0-t) (in vivo PK profiles; in vivo, iv, 10 mg/kg): 2470 ng·h/mL
- clearance (in vivo PK profiles; in vivo, iv, 10 mg/kg): 66.9 mL/min/kg
- half-life (in vivo PK profiles; in vivo, iv, 10 mg/kg): 9.6 min
- Cmax (in vivo PK profiles; in vivo, iv, 10 mg/kg): 14800 ng/mL
- Vd (in vivo PK profiles; in vivo, iv, 10 mg/kg, read-out: VSS): 0.64 L/kg
- AUC(0-inf) (in vivo PK profiles; in vivo, po, 30 mg/kg): 4330 ng·h/mL
- AUC(0-t) (in vivo PK profiles; in vivo, po, 30 mg/kg): 4260 ng·h/mL
- bioavailability (in vivo PK profiles; in vivo, po, 30 mg/kg): 58%
- Cmax (in vivo PK profiles; in vivo, po, 30 mg/kg): 3430 ng/mL
- Tmax (in vivo PK profiles; in vivo, po, 30 mg/kg, read-out: Tmax): 15 min
- Kp at 0.25 h (in vivo PK profiles; in vivo, IV, 10 mg/kg): 0.05
- Kp at 0.25 h (in vivo PK profiles; in vivo, PO, 30 mg/kg): 0.01
- DMPK properties (in vivo PK profiles; preliminary assessment): favorable DMPK properties
- partition ratio (hOAT [5]): 0.6
- return of enzyme activity on dialysis (hOAT [1]): no enzyme activity recovered
- Ki (GABA-AT): > 1240 µM
- kinact (GABA-AT): > 0.006 s⁻¹
- kinact/KI (GABA-AT; read-out: kinact/KI (converted)): 4.83 M⁻¹ s⁻¹
- kinact/KI (GABA-AT; values marked b from the slope of kobs vs [I]): 0.29 ± 0.01^b mM^−1min^−1
- Ki (hOAT [3]): 12 ± 2 µM
- kinact (hOAT [3]): 0.00323 s⁻¹
- kinact/KI (hOAT [3]): 270 M⁻¹ s⁻¹
- times more efficient/potent as an inactivator of hOAT than the comparator (hOAT [3]; versus 10 (b129 prints 7), by kinact/KI): 18.6
- F^− Release (hOAT [6]; with α-KG): 3.95 µM
- Fluoride ions released per active site (hOAT [6]; with α-KG): 2.95 equiv
- F^− Release (hOAT [6]; without α-KG): 3.57 µM
- Fluoride ions released per active site (hOAT [6]; without α-KG): 2.66 equiv
- inhibitory activities against Ala-AT [7]: little or no inhibitory activities
Structure (SMILES): N[C@H]1C=C(C(=O)O)CCC1=C(F)F [Compound 14, (S)-3-Amino-4-(difluoromethylene)cyclohex-1-ene-1-carboxylic acid]

- Ki (GABA-AT): > 2490 µM
- kinact (GABA-AT): > 0.00367 s⁻¹
- kinact/KI (GABA-AT; [8]): 1.45 M⁻¹ s⁻¹
- Ki (hOAT [3]): 98 ± 14 µM
- kinact (hOAT [3]): 0.0009 s⁻¹
- kinact/KI (hOAT [3]): 9.17 M⁻¹ s⁻¹
Structure (SMILES): N[C@H]1CC(C(=O)O)=CCC1=C(F)F [Compound 15, (S)-5-Amino-4-(difluoromethylene)cyclohex-1-ene-1-carboxylic acid]
